Patent US4603142A, “Cholesterol lowering method of use” (Wisconsin Alumni Research Foundation, priority 1984, dated 1986)

How the values were obtained:
[1] = Serum lipids in 3-week-old broiler male chickens fed supplemented corn diet; format: in vivo, chicken; settings: for Concentration in Serum Chol-LDL, percentage of control / Concentration in Serum Total Cholesterol, percentage of control / Concentration in Serum Chol-LDL / Concentration in Serum HDL-Chol. / Concentration in Serum Total Cholesterol: fed 3 weeks
Source text: (§1) These responses were attributed to the presence in the small grains of relatively high concentrations of beta-D-glucans and pentosans. A long-standing interest in lipid metabolism prompted us to examine certain lipogenic and cholesterolgenic enzymes in the tissues of these birds. Methods used for handling blood samples, preparing subcellular fractions of liver and assay procedures for beta-hydroxy-beta-methylglutaryl coenzyme A (HMG Co-A) reductase, fatty acid synthetase (FAS), plasma cholesterol and triglycerides and the statistical treatment of the data have been described [Qureshi AA et al. (1980): Regulation of lipid metabolism in chicken livers by dietary cereals, J Nutr 110:388-393].
For large scale preparation of these compounds, 10 grams of the petroleum ether soluble fraction of HPBF were dissolved in 10 ml petroleum ether and applied to a 90×3.5 cm silicic acid column (Bio-Silica, 100-200 mesh). The column was washed with 2,500 ml petroleum ether followed by stepwise elution with increasing amounts of ether in petroleum ether. Fraction 8 of the column corresponded to HPLC fraction 5. A concentration-dependent suppression of HMG Co-A reductase activity and enhancement of FAS activity was noted within this range. Serum total and LDL cholesterol levels also fell in a dose-dependent response. […] In a companion experiment, using the same control birds, the effect of cholesterol inhibitor I at 5 ppm is compared to the effect of the petroleum ether solubles of HPBF at 20% equivalent on weight gain, HMG Co-A reductase and FAS activities, serum cholesterol and serum triglyceride levels (Table 2). […] Serum triglyceride levels reflected the influence of the diet on FAS activity. […] Cholesterol inhibitor I was a more powerful suppressor of LDL cholesterol (Table 2).
^1 Feeding period was 3 weeks; Time of killing was 0800; Data
expressed as mean ± SD; N = 9 chickens per group; HMGCoA reductase =

[2] = target: T1, HMG-CoA reductase (Homo sapiens, UniProt P04035); assay: HPLC fractions checked in vitro for suppression of HMG Co-A reductase in isolated hepatocytes; format: cell-based; set-up: suppress HMG Co-A reductase activity in isolated hepatocytes; endogenous in cells; host or cells: isolated hepatocytes; settings: HPLC fractions of petroleum ether solubles
T1 sequence (P04035 1-888): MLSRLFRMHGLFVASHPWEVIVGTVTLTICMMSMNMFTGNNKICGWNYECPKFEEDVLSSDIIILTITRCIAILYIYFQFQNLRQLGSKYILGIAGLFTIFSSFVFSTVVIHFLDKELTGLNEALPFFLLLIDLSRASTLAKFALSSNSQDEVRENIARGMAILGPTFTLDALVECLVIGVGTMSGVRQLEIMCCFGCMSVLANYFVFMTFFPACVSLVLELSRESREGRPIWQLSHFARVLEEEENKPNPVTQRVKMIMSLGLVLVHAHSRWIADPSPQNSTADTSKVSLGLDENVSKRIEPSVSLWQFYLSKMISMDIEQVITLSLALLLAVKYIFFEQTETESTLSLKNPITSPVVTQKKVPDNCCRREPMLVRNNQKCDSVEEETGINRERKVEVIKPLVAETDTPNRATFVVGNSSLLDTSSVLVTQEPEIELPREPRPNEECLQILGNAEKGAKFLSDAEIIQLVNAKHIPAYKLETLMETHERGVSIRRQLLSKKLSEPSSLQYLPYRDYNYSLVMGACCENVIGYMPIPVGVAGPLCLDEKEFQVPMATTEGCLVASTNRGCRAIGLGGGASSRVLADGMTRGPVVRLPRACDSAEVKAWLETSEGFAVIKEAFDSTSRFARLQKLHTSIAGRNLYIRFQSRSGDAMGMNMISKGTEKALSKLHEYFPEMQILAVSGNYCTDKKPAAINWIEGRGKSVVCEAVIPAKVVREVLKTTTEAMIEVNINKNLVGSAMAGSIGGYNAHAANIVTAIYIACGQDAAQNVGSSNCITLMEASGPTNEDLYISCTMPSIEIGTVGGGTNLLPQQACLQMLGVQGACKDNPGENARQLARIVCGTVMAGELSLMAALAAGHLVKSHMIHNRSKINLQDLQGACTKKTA

[3] = test system: Fatty Acid Synthetase; assay: Hepatic fatty acid synthetase activity in 13-week-old WLH male chickens; format: in vivo, chicken; settings: 20 ppm in corn diet, fed four weeks, liver
Source text: as §1
Cholesterol inhibitor I was re-chromatographed by HPLC and the UV absorption spectrum obtained. Maximum absorption occurred at 292 nm. This purified fraction was used for high resolution mass spectrometric analysis. Several scans were made using ionization temperatures from 90-180 degrees Centigrade to increase the possibility of detecting impurities. […] The results shown on Table 3 confirm those previously recorded for petroleum ether solubles of HPBF and cholestrol inhibitor I. In a final experiment, the effects of cholestrol inhibitor I and lemon grass oil on hepatocyte HMG Co-A reductase and FAS activities were tested. […]
expressed as mean ± SD; N = 8 chickens per group; HMGCoA reductase = […]

[4] = 2.5 ppm in corn diet, mean ± SD, N = 9
[5] = 5.0 ppm in corn diet, mean ± SD, N = 9
[6] = 10.0 ppm in corn diet, mean ± SD, N = 9
[7] = 15.0 ppm in corn diet, mean ± SD, N = 9
[8] = 20.0 ppm in corn diet, mean ± SD, N = 9
[9] = corn diet + 5 ppm (Table 2), mean ± SD, N = 9

CC(C)=CCC/C(C)=C/CC/C(C)=C/CC[C@]1(C)CCc2c(C)c(O)c(C)c(C)c2O1 [Cholesterol inhibitor I, 2,5,7,8-tetramethyl-2 (4,8, 12-trimethyltrideca-3,7, 11-trienyl)chroman-6-ol]
Concentration in Serum Chol-LDL, percentage of control ([1]; 2.5 ppm in corn diet): 90 Percentage of respective contr | Concentration in Serum Total Cholesterol, percentage of control ([1]; 2.5 ppm in corn diet): 94 Percentage of respective contr | Concentration in Serum Chol-LDL [1, 4]: 73 ± 5 mg/100 ml | Concentration in Serum HDL-Chol. [1, 4]: 54 ± 6 mg/100 ml | Concentration in Serum Total Cholesterol [1, 4]: 152 ± 10 mg/100 ml | Level of cholesterol transported in the high-density lipoprotein fraction (HDL) ([1]; 2.5 to 20 ppm, Table 1): not influenced | Concentration in Serum Chol-LDL, percentage of control ([1]; 5.0 ppm in corn diet): 74 Percentage of respective contr | Concentration in Serum Total Cholesterol, percentage of control ([1]; 5.0 ppm in corn diet): 89 Percentage of respective contr | Concentration in Serum Chol-LDL [1, 5]: 60 ± 4 mg/100 ml | Concentration in Serum HDL-Chol. [1, 5]: 51 ± 4 mg/100 ml | Concentration in Serum Total Cholesterol [1, 5]: 144 ± 8 mg/100 ml | Concentration in Serum Chol-LDL, percentage of control ([1]; 10.0 ppm in corn diet): 67 Percentage of respective contr | Concentration in Serum Total Cholesterol, percentage of control ([1]; 10.0 ppm in corn diet): 78 Percentage of respective contr | Concentration in Serum Chol-LDL [1, 6]: 54 ± 4 mg/100 ml | Concentration in Serum HDL-Chol. [1, 6]: 52 ± 5 mg/100 ml | Concentration in Serum Total Cholesterol [1, 6]: 125 ± 7 mg/100 ml | Concentration in Serum Chol-LDL, percentage of control ([1]; 15.0 ppm in corn diet): 64 Percentage of respective contr | Concentration in Serum Total Cholesterol, percentage of control ([1]; 15.0 ppm in corn diet): 76 Percentage of respective contr | Concentration in Serum Chol-LDL [1, 7]: 52 ± 5 mg/100 ml | Concentration in Serum HDL-Chol. [1, 7]: 50 ± 6 mg/100 ml | Concentration in Serum Total Cholesterol [1, 7]: 122 ± 6 mg/100 ml | Concentration in Serum Chol-LDL, percentage of control ([1]; 20.0 ppm in corn diet): 47 Percentage of respective contr | Concentration in Serum Total Cholesterol, percentage of control ([1]; 20.0 ppm in corn diet): 65 Percentage of respective contr | Concentration in Serum Chol-LDL [1, 8]: 38 ± 5 mg/100 ml | Concentration in Serum HDL-Chol. [1, 8]: 48 ± 5 mg/100 ml | Concentration in Serum Total Cholesterol [1, 8]: 105 ± 8 mg/100 ml | Serum Cholesterol HDL-Chol. [1, 9]: 48 ± 5 mg/dL | Serum Cholesterol LDL-Chol. [1, 9]: 38 ± 5 mg/dL | Serum Cholesterol Total-Chol. [1, 9]: 105 ± 11 mg/dL | Serum Triglycerides [1, 9]: 174 ± 6 mg/dL | Effect on HMG Co-A reductase in isolated hepatocytes [2]: significant inhibition | Fatty Acid Synthetase, percentage of control [3]: 111 Percentage of respective contr | Fatty Acid Synthetase ([3]; mean ± SD, N = 8): 292 ± 9 nmoles of NADPH oxidized per m
